In patent publication US11466012B2, “Tetrahydroisoquinoline compounds” (ALLINKY BIOPHARMA, priority 2018, dated 2022):

How the values were obtained:
Assay type in all cases: cell-based
[1] = tested on: RPMI-8226 myeloma cell line bearing KRas^G12A oncogenic mutation; assay: Cell proliferation inhibition (MTS), RPMI-8226; conditions: Homo sapiens
Protocol: (§1) • Cell line #1: A549. Lung carcinoma cell line bearing KRas^G12S oncogenic mutation • Cell line #2: H358. non-small cell lung cancer line bearing KRas^G12C oncogenic mutation • Cell line #3: PANC-1. epithelioid carcinoma of the pancreas cell line bearing KRas^G12D oncogenic mutation • Cell line #4: RPMI. myeloma cell line bearing KRas^G12A oncogenic mutation
(§2) Cell lines were cultured in DMEM or RPMI-1640 supplemented with FBS 10%. In order to assess the antiproliferative effect of compounds, cells were seeded at a density of 1.8×10^3, 6.2×10^3, 7.8×10^3, 21×10^3 and 2×10^3 cells/cm^2, respectively, in tissue culture microplates and were incubated in humidified atmosphere at 5% CO2. 24 h later, compounds dissolved in DMSO 100% were added for different final concentrations ranging between 0.1 and 50 μM for a final DMSO concentration of 0.5% and the plates were incubated for another 72 h. After incubation, proliferation was quantified using CellTiter 96® Aqueous Non-Radioactive Cell Proliferation Assay-MTS (Promega #G5421) following manufacturer instructions. Amount of 490 nm absorbance is directly proportional to the number of living cells. Absorbance was recorded with a BMG Fluostar Optima Microplate Reader and normalized to control with vehicle.

[2] = tested on: A549 lung carcinoma cell line bearing KRas^G12S oncogenic mutation; assay: Cell proliferation inhibition (MTS), A549; conditions: Homo sapiens
Protocol: as §1, §2

[3] = tested on: H358 non-small cell lung cancer line bearing KRas^G12C oncogenic mutation; assay: Cell proliferation inhibition (MTS), H358; conditions: Homo sapiens, NCI-H358
Protocol: as §1, §2

[4] = tested on: PANC-1 epithelioid carcinoma of the pancreas cell line bearing KRas^G12D oncogenic mutation; assay: Cell proliferation inhibition (MTS), PANC-1; conditions: Homo sapiens
Protocol: as §1, §2

[5] = 72 h incubation, MTS, compounds 1-53, median from experimental results
[6] = compounds 54-63, based on estimations and/or preliminary experimental results

Structure (SMILES)	IC50 [1, 5]	IC50 [2, 5]	IC50 [3, 5]	IC50 [4, 5]	IC50 [1, 6]	IC50 [2, 6]	IC50 [3, 6]	IC50 [4, 6]
COc1cc2c(cc1OCCc1ccc3c(c1)CCC3)C(c1ccc(C)cc1C)N(C(=O)NCc1ccncc1)CC2 (centres unmarked) [Compound 14]	3940 nM	> 10000 nM	> 10000 nM	> 30000 nM	–	–	–	–
COc1cc2c(cc1OCCc1ccc(C)nc1)C(c1ccc(C)cc1C)N(C(=O)NCc1cocn1)CC2 (centres unmarked) [Compound 57]	–	–	–	–	600 nM	600 nM	600 nM	500 nM
COc1cc2c(cc1OCCc1cccnc1C)C(c1ccc(C)cc1C)N(C(=O)NCc1cocn1)CC2 (centres unmarked) [Compound 58]	–	–	–	–	600 nM	600 nM	600 nM	500 nM
COc1cc2c(cc1OCCc1cccc(C(=O)O)c1)C(c1ccc(C)cc1C)N(C(=O)NCc1cocn1)CC2 (centres unmarked) [Compound 31]	1910 nM	2070 nM	2110 nM	1830 nM	–	–	–	–
COc1ccc(CCOc2cc3c(cc2OC)CCN(C(=O)NCc2cocn2)C3c2ccc(C)cc2C)cn1 (centres unmarked) [Compound 55]	–	–	–	–	600 nM	600 nM	600 nM	500 nM
COc1cc2c(cc1OCCc1cnccn1)C(c1ccc(C)cc1C)N(C(=O)NCc1ccon1)CC2 (centres unmarked) [Compound 52]	700 nM	600 nM	600 nM	500 nM	–	–	–	–
Cc1ccc(C2c3cc(OCCc4cccnc4)c(C(N)=O)cc3CCN2C(=O)NCc2cocn2)c(C)c1 (centres unmarked) [Compound 34, 1-(2,4-dimethylphenyl)-N2-(oxazol-4-ylmethyl)-7-(2-(pyridin-3-yl)ethoxy)-3,4-dihydroisoquinoline-2,6(1H)-dicarboxamide]	720 nM	430 nM	390 nM	420 nM	–	–	–	–
COc1cc2c(cc1OCCc1cccc(O)c1)C(c1ccc(C)cc1Cl)N(C(=O)NCc1ccncc1)CC2 (centres unmarked) [Compound 13]	2860 nM	9370 nM	15800 nM	12600 nM	–	–	–	–
Cc1ccc(C2c3cc(OCCc4cccc(O)c4)c(O)cc3CCN2C(=O)NCc2cocn2)c(C)c1 (centres unmarked) [Compound 25]	580 nM	550 nM	520 nM	530 nM	–	–	–	–
COc1cc2c(cc1OCCc1cccc(O)c1)C(c1c(C)cc(C)cc1O)N(CCC(C)=O)CC2 (centres unmarked) [Compound 10]	860 nM	15900 nM	19800 nM	15000 nM	–	–	–	–
CC(=O)Cc1cc2c(cc1OCCc1cccnc1)C(c1ccc(C)cc1C)N(C(=O)NCc1cocn1)CC2 (centres unmarked) [Compound 40]	1330 nM	820 nM	960 nM	810 nM	–	–	–	–
CC(=O)c1cc2c(cc1OCCc1cccnc1)C(c1ccc(C)cc1C)N(C(=O)NCc1cocn1)CC2 (centres unmarked) [Compound 39]	410 nM	340 nM	520 nM	470 nM	–	–	–	–
Cc1ccc(C2c3cc(OCCc4cccnc4)c(C(=O)O)cc3CCN2C(=O)NCc2cocn2)c(C)c1 (centres unmarked) [Compound 35]	320 nM	330 nM	510 nM	430 nM	–	–	–	–
Cc1ccc(C2c3cc(OCCc4cccc(C(N)=O)c4)c(C(N)=O)cc3CCN2C(=O)NCc2cocn2)c(C)c1 (centres unmarked) [Compound 28]	1020 nM	1560 nM	1230 nM	2010 nM	–	–	–	–
CCC(=O)CCN1CCc2cc(OC)c(OCCc3cccc(O)c3)cc2C1c1ccc(C)cc1C (centres unmarked) [Compound 7]	2410 nM	6340 nM	18100 nM	24800 nM	–	–	–	–
C=CC(=O)Nc1cc2c(cc1OCCc1cccnc1)C(c1ccc(C)cc1C)N(C(=O)NCc1cocn1)CC2 (centres unmarked) [Compound 45]	890 nM	790 nM	990 nM	870 nM	–	–	–	–
CCC(=O)CCN1CCc2cc(OC)c(OCCc3cccc(O)c3)cc2C1c1ccccc1C (centres unmarked) [Compound 9]	740 nM	3650 nM	19000 nM	24500 nM	–	–	–	–
COc1cc2c(cc1OCCc1cccc(F)c1)C(c1ccc(C)cc1C)N(C(=O)NCc1cocn1)CC2 (centres unmarked) [Compound 21]	900 nM	1330 nM	780 nM	810 nM	–	–	–	–
CCC(=O)CN1CCc2cc(OC)c(OCCc3cccc(O)c3)cc2C1c1ccc(C)cc1Cl (centres unmarked) [Compound 12]	4980 nM	8990 nM	16800 nM	13600 nM	–	–	–	–
CC(=O)Nc1cc2c(cc1OCCc1cccnc1)C(c1ccc(C)cc1C)N(C(=O)NCc1cocn1)CC2 (centres unmarked) [Compound 37]	1210 nM	810 nM	710 nM	740 nM	–	–	–	–
COc1cc2c(cc1OCCc1ccccn1)C(c1ccc(C)cc1C)N(C(=O)NCc1cocn1)CC2 (centres unmarked) [Compound 49]	> 1000 nM	> 1000 nM	> 1000 nM	> 1000 nM	–	–	–	–

Structure (SMILES)	IC50 [1, 5]	IC50 [2, 5]	IC50 [3, 5]	IC50 [4, 5]	IC50 [1, 6]	IC50 [2, 6]	IC50 [3, 6]	IC50 [4, 6]
CCC(=O)CCN1CCc2cc(OC)c(OCC(=O)c3cccc(C(=O)OC)c3)cc2C1c1ccc(C)cc1Cl (centres unmarked) [Compound 4]	2670 nM	10100 nM	> 20000 nM	29700 nM	–	–	–	–
COc1cc2c(cc1OCCc1cnc(C)cn1)C(c1ccc(C)cc1C)N(C(=O)NCc1cocn1)CC2 (centres unmarked) [Compound 60]	–	–	–	–	500 nM	600 nM	700 nM	700 nM
CCC(=O)CCN1CCc2cc(OC)c(OCc3cccc(O)c3)cc2C1c1ccc(C)cc1Cl (centres unmarked) [Compound 2]	1800 nM	8250 nM	12100 nM	17300 nM	–	–	–	–
COc1cc2c(cc1OCCc1cnccn1)C(c1ccc(C)cc1C)N(C(=O)NCc1cocn1)CC2 (centres unmarked) [Compound 53]	500 nM	600 nM	700 nM	700 nM	–	–	–	–
COc1cc2c(cc1OCCc1cccc(NC(C)=O)c1)C(c1ccc(C)cc1C)N(C(=O)NCc1cocn1)CC2 (centres unmarked) [Compound 47]	1500 nM	1500 nM	1200 nM	1500 nM	–	–	–	–
COc1cc2c(cc1OCCc1cccc(O)c1)C(c1ccc(C)cc1C)N(C(=O)NCc1cncs1)CC2 (centres unmarked) [Compound 19]	2930 nM	950 nM	680 nM	570 nM	–	–	–	–
COc1cc2c(cc1OCCc1cccc(C(N)=O)c1)C(c1ccc(C)cc1C)N(C(=O)NCc1cocn1)CC2 (centres unmarked) [Compound 27]	980 nM	1020 nM	1120 nM	1330 nM	–	–	–	–
Cc1ccc(C2c3cc(OCCc4cccnc4)c(NC=O)cc3CCN2C(=O)NCc2cocn2)c(C)c1 (centres unmarked) [Compound 36]	990 nM	730 nM	910 nM	670 nM	–	–	–	–
Cc1ccc(C2c3cc(OCCc4cccc(O)c4)c(C(=O)O)cc3CCN2C(=O)NCc2cocn2)c(C)c1 (centres unmarked) [Compound 32]	520 nM	440 nM	310 nM	490 nM	–	–	–	–
COc1cc2c(cc1OCCc1cccc(O)c1)C(c1ccc(C)cc1C)N(C(=O)NCc1ccncc1)CC2 (centres unmarked) [Compound 16]	480 nM	> 5000 nM	7240 nM	12000 nM	–	–	–	–
COc1cc2c(cc1OCCc1ccc3c(c1)CCO3)C(c1ccc(C)cc1C)N(C(=O)NCc1ccncc1)CC2 (centres unmarked) [Compound 15]	890 nM	2140 nM	2580 nM	2130 nM	–	–	–	–
COc1cc2c(cc1OCCc1cccc(O)c1)C(c1ccc(C)cc1C)N(C(=O)NCc1ccccn1)CC2 (centres unmarked) [Compound 20]	600 nM	750 nM	480 nM	560 nM	–	–	–	–
COc1cc2c(cc1OCCc1nccnc1OC)C(c1ccc(C)cc1C)N(C(=O)NCc1cocn1)CC2 (centres unmarked) [Compound 62]	–	–	–	–	500 nM	600 nM	700 nM	700 nM
COc1cc2c(cc1OCCc1cccnc1OC)C(c1ccc(C)cc1C)N(C(=O)NCc1cocn1)CC2 (centres unmarked) [Compound 56]	–	–	–	–	600 nM	600 nM	600 nM	500 nM
COc1cc2c(cc1OCCc1ccccc1)C(c1ccc(C)cc1C)N(C(=O)NCc1cocn1)CC2 (centres unmarked) [Compound 22]	820 nM	890 nM	650 nM	600 nM	–	–	–	–
CCC(=O)CCN1CCc2cc(OC)c(OCCc3cccc(O)c3)cc2C1c1ccc(OC)c(OC)c1Cl (centres unmarked) [Compound 8]	2110 nM	4110 nM	11200 nM	11100 nM	–	–	–	–
Cc1ccc(C2c3cc(OCCc4cccnc4)c(F)cc3CCN2C(=O)NCc2cocn2)c(C)c1 (centres unmarked) [Compound 44]	990 nM	1720 nM	1010 nM	1000 nM	–	–	–	–
Cc1ccc(C2c3cc(OCCc4cccnc4)ccc3CCN2C(=O)NCc2cocn2)c(C)c1 (centres unmarked) [Compound 43]	610 nM	740 nM	910 nM	880 nM	–	–	–	–
COc1cc2c(cc1OCCc1cccc(O)c1)C(c1ccc(C)cc1Cl)N(C(=O)NCc1cocn1)CC2 (centres unmarked) [Compound 29]	690 nM	760 nM	960 nM	680 nM	–	–	–	–
COc1cc2c(cc1OCCc1cccc(OC(C)=O)c1)C(c1ccc(C)cc1C)N(C(=O)NCc1cocn1)CC2 (centres unmarked) [Compound 3]	1210 nM	1970 nM	1660 nM	1590 nM	–	–	–	–
